One experiment concerns A549 (lung carcinoma). As to the kind of experiment: In vitro antiproliferation assay, A549 cells (TABLE 1 6 point assay; TABLE 2). The experiment is classed as cell-based. The protocol:
(§1) Certain compounds were tested against other cell types for their ability to inhibit proliferation in standard antiproliferation assays.

The subject of experiment [1] is H1299 (non-small cell lung carcinoma). Put plainly: In vitro antiproliferation assay, H1299 cells (TABLE 1 6 point assay; TABLE 2). The experiment is classed as cell-based. The protocol: as §1
The mark [2] stands for this setting: Homo sapiens, A549, A549 cells, 6 point assay, read-out: A549, 6pt (IC50, inhibition of proliferation).
Setting [3] is: Homo sapiens, NCI-H1299, H1299 cells, 6 point assay, read-out: H1299, 6pt (IC50, inhibition of proliferation).
[4] abbreviates: Homo sapiens, A549, 6 point assay, A549 cells, read-out: IC50, A549 cells.
[5] abbreviates: Homo sapiens, NCI-H1299, 6 point assay, H1299 cells, read-out: IC50, H1299 cells.

Read-outs that look alike come from different tables or passages of the source.

With `CN(C)CCn1ccc2ccc(Nc3ncc(F)c(NC4C5C=CC(C5)C4C(=O)NC4CC4)n3)cc21` (racemic) [compound 169, Racemic-(2-exo,3-exo)-N4-[3-cyclopropylaminocarbonylbicyclo[2.2.1]hept-5-en-2-yl)-N2-[1-(2-dimethylaminoethyl)indol-6-yl]-5-fluoro-2,4-pyrimidinediamine], the IC50 with A549 (lung carcinoma) (setting [2]) is not above 100 nM; in experiment [1] (setting [3]), 100 to 1000 nM.
Consider `NC(=O)[C@@H]1[C@H](Nc2nc(Nc3cccc(C4CCNCC4)c3)ncc2F)[C@H]2C=C[C@@H]1C2` [compound 274, (1R,2R,3S,4S)-N4-(3-Aminocarbonylbicyclo[2.2.1]hept-5-en-2-yl)-5-fluoro-N2-[3-(piperidin-4-yl)phenyl]-2,4-pyrimidinediamine], for which the IC50 (in the experiment on A549 (lung carcinoma) (setting [4]); in experiment [1] (setting [5])) was not above 100 nM each time.
Consider `CCOC(=O)N1CCN(c2ccc(Nc3ncc(F)c(NC4CCCC4C(N)=O)n3)cc2)CC1` (stereo not drawn) [compound 199, N4-(2-Carboxamidocyclopentyl)-N2-[4-(4-ethoxycarbonylpiperazino)phenyl]-5-fluoro-2,4-pyrimidinediamine], for which the IC50 (in the experiment on A549 (lung carcinoma) (setting [4]); in experiment [1] (setting [5])) was 100 to 1000 nM throughout.
`Cc1cc(Nc2ncc(F)c(N[C@@H]3CCC[C@H]3C(N)=O)n2)ccc1N1CCN(C)CC1` [15c, (1R,2R)—N4-(2-Aminocarbonylcyclopent-1-yl)-5-fluoro-N2-[4-(4-methylpiperazin-1-yl)-3-methylphenyl]-2,4-pyrimidinediamine]: the IC50 (in the experiment with A549 (lung carcinoma) (setting [4]); in experiment [1] (setting [5])) was 1000 to 10000 nM throughout.
`Cn1ccc2cc(Nc3ncc(F)c(NC4C5C=CC(C5)C4C(N)=O)n3)ccc21` (racemic) [compound 161, Racemic-(2-exo,3-exo)-N4-[3-aminocarbonylbicyclo[2.2.1]hept-5-ene-2-yl)-5-fluoro-N2-(1-methylindol-5-yl)-2,4-pyrimidinediamine]: the IC50 (in the experiment with A549 (lung carcinoma) (setting [2]); in experiment [1] (setting [3])) was 100 to 1000 nM in each case.
Consider `Cc1cc(Nc2ncc(F)c(NC3C4C=CC(C4)C3C(N)=O)n2)ccc1N1CCCC1` (racemic) [Compound 288, Racemic-(2-exo,3-exo)-N4-(3-aminocarbonylbicyclo[2.2.1]hept-5-en-2-yl)-5-fluoro-N2-[3-methyl-4-(pyrrolidino)phenyl]-2,4-pyrimidinediamine], for which the IC50 (in the experiment with A549 (lung carcinoma) (setting [4]); in experiment [1] (setting [5])) was 100 to 1000 nM throughout.
`CNC(=O)c1cc(Nc2ncc(F)c(NC3C4C=CC(C4)C3C(=O)OC)n2)ccc1N1CCN(C)CC1` (racemic) [compound 254, Racemic-(2-exo,3-exo)-5-fluoro-N4-(3-methoxycarbonylbicyclo [2.2.1]hept-5-en-2-yl)-N2-[3-methylaminocarbonyl-4-(4-methylpiperazin-1-yl)phenyl]-2,4-pyrimidinediamine]: the IC50 (with A549 (lung carcinoma) (setting [4]); in experiment [1] (setting [5])) was 1000 to 10000 nM in each case.
For `Cc1cc(Nc2ncc(F)c(NC3C4C=CC(C4)C3C(=O)OC3C[C@@H](C)CC[C@@H]3C(C)C)n2)ccc1N1CCN(C)CC1` (mixture of isomers) [compound 135, Racemic (2-exo,3-exo)-5-Fluoro-N4-[3-(1R,2S,5R)-(−)-menthyloxycarbonylbicyclo[2.2.1]hept-5-en-2-yl]-N2-[3-methyl-4-(4-methylpiperazin-1-yl)phenyl]-2,4-pyrimidinediamine], the IC50 (in the experiment with A549 (lung carcinoma) (setting [2]); in experiment [1] (setting [3])) was 1000 to 10000 nM in each case.
As for `NC(=O)[C@@H]1[C@H](Nc2nc(Nc3ccc(OC(F)(F)F)c(Cl)c3)ncc2F)[C@H]2C=C[C@@H]1C2` [compound 148, (1R,2R,3S,4S)-N4-(3-Aminocarbonylbicyclo[2.2.1]hept-5-en-2-yl)-N2-(3-chloro-4-trifluoromethoxyphenyl)-5-fluoro-2,4-pyrimidinediamine], the IC50 (with A549 (lung carcinoma) (setting [2]); in experiment [1] (setting [3])) was 1000 to 10000 nM each time.
`Cc1ccc(Nc2ncc(F)c(N[C@H]3CCC[C@H]3C(N)=O)n2)cc1OCC(=O)N1CCN(C)CC1` (racemic) [compound 102, Racemic-cis-N4-(2-aminocarbonylcyclopent-1-yl)-5-fluoro-N2-[4-methyl-3-(4-methylpiperazin-1-yl)carbonylmethyleneoxyphenyl]-2,4-pyrimidinediamine]: the IC50 (in the experiment with A549 (lung carcinoma) (setting [2]); in experiment [1] (setting [3])) was 1000 to 10000 nM each time.
`Cc1cc(Nc2ncc(F)c(N[C@H]3CCC[C@@H]3C(N)=O)n2)ccc1N1CCN(C)CC1` [15d, (1S,2S)—N4-(2-Aminocarbonylcyclopent-1-yl)-5-fluoro-N2-[4-(4-methylpiperazin-1-yl)-3-methylphenyl]-2,4-pyrimidinediamine]: the IC50 (with A549 (lung carcinoma) (setting [4]); in experiment [1] (setting [5])) was more than 10000 nM each time.
Take `Cc1cc(Nc2ncc(F)c(NC3C4C=CC(C4)C3C(=O)NC3CCC3)n2)ccc1N1CCN(C)CC1` (racemic) [compound 165, Racemic-(2-exo,3-exo)-N4-[3-(N-cyclobutyl)aminocarbonylbicyclo[2.2.1]hept-5-en-2-yl]-5-fluoro-N2-[3-methyl-4-(4-methylpiperazin-1-yl)phenyl]-2,4-pyrimidinediamine]: the IC50 (with A549 (lung carcinoma) (setting [2]); in experiment [1] (setting [3])) was not above 100 nM in each case.
Regarding `COc1cc(Nc2ncc(F)c(NC3C4C=CC(C4)C3C(N)=O)n2)ccc1S(N)(=O)=O` (racemic) [compound 133, Racemic-(2-exo,3-exo)-N4-(3-aminocarbonylbicyclo[2.2.1]hept-5-en-2-yl)-N2-(4-aminosulfonyl-3-methoxyphenyl)-5-fluoro-2,4-pyrimidinediamine], the IC50 (with A549 (lung carcinoma) (setting [2]); in experiment [1] (setting [3])) was 1000 to 10000 nM in each case.
As for `CNC(=O)C1C2C=CC(C2)C1Nc1nc(Nc2ccc(N3CCN(C)CC3)c(C)c2)ncc1F` (racemic) [compound 166, Racemic-(2-exo,3-exo)-N4-[3-(N-methyl)aminocarbonylbicyclo[2.2.1]hept-5-en-2-yl)-5-fluoro-N2-[3-methyl-4-(4-methylpiperazin-1-yl)phenyl]-2,4-pyrimidinediamine], the IC50 (in the experiment with A549 (lung carcinoma) (setting [2]); in experiment [1] (setting [3])) was not above 100 nM in each case.
`CCS(=O)(=O)N1CCN(c2ccc(Nc3ncc(F)c(N[C@H]4[C@@H](C(N)=O)[C@@H]5C=C[C@H]4C5)n3)cc2C)CC1` [compound 269, (1R,2R,3S,4S)-N4-(3-Aminocarbonylbicyclo[2.2.1]hept-5-en-2-yl)-N2-[3-methyl-4-(4-ethylsulfonylpiperazin-1-yl)phenyl]-5-fluoro-2,4-pyrimidinediamine]: the IC50 is not above 100 nM in the experiment with A549 (lung carcinoma) (6 point assay, A549 cells, read-out: IC50, A549 cells) and not above 100 nM in experiment [1] (6 point assay, H1299 cells, read-out: IC50, H1299 cells).
As to `CN1CCC(Oc2ccc(Nc3ncc(F)c(N[C@H]4[C@@H](C(N)=O)[C@@H]5C=C[C@H]4C5)n3)cc2Cl)CC1` [compound 152, (1R,2R,3S,4S)-N4-(3-Aminocarbonylbicyclo[2.2.1]hept-5-en-2-yl)-N2-[3-chloro-4-(1-methylpiperidin-4-yloxy)phenyl]-5-fluoro-2,4-pyrimidinediamine], the IC50 (in the experiment on A549 (lung carcinoma) (setting [2]); in experiment [1] (setting [3])) was not above 100 nM in each case.
For `Cc1cc(Nc2ncc(F)c(NC3(C(N)=O)CCCC3)n2)ccc1N1CCN(C)CC1` [compound 248, N4-(1-Aminocarbonylcyclopent-1-yl)-5-fluoro-N2-[3-methyl-4-(4-methylpiperazin-1-yl)phenyl]-2,4-pyrimidinediamine], the IC50 (in the experiment with A549 (lung carcinoma) (setting [4]); in experiment [1] (setting [5])) was more than 10000 nM in each case.
For `COc1cc(Nc2ncc(F)c(NC3C4C=CC(C4)C3C(N)=O)n2)ccc1N1CCN(C)CC1` (racemic) [compound 256, Racemic-(2-exo,3-exo)-N4-(3-aminocarbonylbicyclo[2.2.1]hept-5-en-2-yl)-5-fluoro-N2-[3-methoxy-4-(4-methylpiperazin-1-yl)phenyl]-2,4-pyrimidinediamine], the IC50 (in the experiment with A549 (lung carcinoma) (setting [4]); in experiment [1] (setting [5])) was not above 100 nM in each case.
As for `CN(C)CCN1CCc2cc(Nc3ncc(F)c(N[C@@H]4[C@H](C(N)=O)[C@H]5C=C[C@@H]4C5)n3)ccc21` [compound 187, (1S,2S,3R,4R)-N4-[3-Aminocarbonylbicyclo[2.2.1]hept-5-en-2-yl]-N2-[1-(2-dimethylaminoethyl)-2,3-dihydroindol-5-yl]-5-fluoro-2,4-pyrimidinediamine], the IC50 (in the experiment on A549 (lung carcinoma) (setting [2]); in experiment [1] (setting [3])) was 1000 to 10000 nM each time.
For the compound `CCN1CCN(c2ccc(Nc3ncc(F)c(NC4C5C=CC(C5)C4C(N)=O)n3)cc2C)CC1` (racemic) [compound 241, Racemic-(2-exo,3-exo)-N4-(3-aminocarbonylbicyclo[2.2.1]hept-5-en-2-yl)-N2-[4-(4-ethylpiperazin-1-yl)-3-methylphenyl]-5-fluoro-2,4-pyrimidinediamine], the IC50 (with A549 (lung carcinoma) (setting [4]); in experiment [1] (setting [5])) was not above 100 nM each time.
Turning to `CN(C)CCn1ccc2ccc(Nc3ncc(F)c(NC4C5C=CC(C5)C4C(N)=O)n3)cc21` (racemic) [compound 163, Racemic-(2-exo,3-exo)-N4-[3-aminocarbonylbicyclo[2.2.1]hept-5-en-2-yl)-N2-[1-(2-dimethylaminoethyl)indol-6-yl]-5-fluoro-2,4-pyrimidinediamine], the IC50 (in the experiment with A549 (lung carcinoma) (setting [2]); in experiment [1] (setting [3])) was 100 to 1000 nM in each case.
With `Cc1cc(Nc2ncc(F)c(NC3CCCC3C(N)=O)n2)ccc1N1CCN(C)CC1` (stereo not drawn) [compound 206, (cis)-N4-(2-Carboxamidocyclopent-1-yl)-5-fluoro-N2-[3-methyl-4-(4-methylpiperazino)phenyl]-2,4-pyrimidinediamine], the IC50 in the experiment on A549 (lung carcinoma) (setting [4]) is 100 to 1000 nM; in the experiment on A549 (lung carcinoma) (Homo sapiens, A549, A549, read-out: In Vitro IC50) it was not above 1000 nM; in experiment [1] (setting [5]), 100 to 1000 nM.

(Values after US7868013B2, “Cycloalkyl substituted pyrimidinediamine compounds and their uses” (Rigel Pharmaceuticals, Inc., priority 2004, dated 2011).)
